Laboratory results taken from patent US12227509B2, “Dihydropyrazolopyrazinone derivative having MGAT2 inhibitory activity” (Shionogi & Co., Ltd., priority 2019, dated 2025).

Experiments:
CYP2C9 = CYP2C9 (Homo sapiens (Human), UniProt P11712); assay: CYP inhibition test, CYP2C9; type: in vitro ADME; conditions: pooled human liver microsomes; tolbutamide methyl-hydroxylation; given as 'five kinds'
Excerpt: (§1) Using commercially available pooled human hepatic microsome, and employing, as markers, 7-ethoxyresorufin O-deethylation (CYP1A2), tolbutamide methyl-hydroxylation (CYP2C9), mephenytoin 4'-hydroxylation (CYP2C19), dextromethorphan 0-demethylation (CYP2D6), and terfenadine hydroxylation (CYP3A4) as typical substrate metabolism reactions of human main five CYP enzyme forms (CYP1A2, 2C9, 2C19, 2D6, 3A4), an inhibitory degree of each metabolite production amount by the compound of the present invention was assessed. The reaction conditions are as follows: substrate, 0.5 μmol/L ethoxyresorufin (CYP1A2), 100 μmol/L tolbutamide (CYP2C9), 50 μmol/L S-mephenitoin (CYP2C19), 5 μmol/L dextromethorphan (CYP2D6), 1 μmol/L terfenedine (CYP3A4); reaction time, 15 minutes; reaction temperature, 37° C.; enzyme, pooled human liver microsomes 0.2 mg protein/mL; concentrations of the compound of the present invention, 1, 5, 10, 20 μmol/L (four points). As a reaction solution, each five kinds of substrates, human liver microsomes, or compound of the present invention in 50 mmol/L Hepes buffer were added to a 96-well plate at the composition as described above, and NADPH, as a cofactor was added to initiate metabolism reactions. After the incubation at 37° C. for 15 minutes, a methanol/acetonitrile=1/[…]) solution was added to stop the reaction. After the centrifugation at 3000 rpm for 15 minutes, resorufin (CYP1A2 metabolite) in the supernatant was quantified by a fluorescent multilabel counter or LC/MS/MS, and tolbutamide hydroxide (CYP2C9 metabolite), mephenytoin 4' hydroxide (CYP2C19 metabolite), dextrorphan (CYP2D6 metabolite), and terfenadine alcohol (CYP3A4 metabolite) were quantified by LC/MS/MS. Addition of only DMSO being a solvent dissolving a drug to a reaction system was adopted as a control (100%). Remaining activity (%) was calculated. IC50 was calculated by reverse presumption by a logistic model using the concentration and an inhibition rate.

[1] = BA test (oral absorption); type: in vivo; conditions: plasma; mice or SD rats; from AUCs of oral and intravenous administration
Description: Materials and methods for experiments to evaluate oral absorption
(1) Animals: the mice or SD rats were used.
(2) Breeding conditions: the mice or SD rats were allowed to freely take solid food and sterilized tap water.
(3) Setting of dosage and grouping: Oral administration and intravenous administration were performed with a predetermined dosage. Grouping was set as below. (dosage changed per compound)
Oral administration: 1 to 30 mg/kg (n=2 to 3)
Intravenous administration: 0.5 to 10 mg/kg (n=2 to 3)
(4) Preparation of administration solution: Oral administration was performed in the form of a suspension or a solution. Intravenous administration was performed after solubilization.
(5) Routes of administration: Oral administration was performed mandatory into the stomach by oral sonde. Intravenous administration was performed from caudal vein or femoral vein by syringes with needle.
(6) Evaluation items: blood was collected over time, and the plasma concentration of the compound of the present invention was measured by LC/MS/MS.
(7) Statistical analysis: regarding the transition of the plasma concentration of the compound of the present invention, the area under the plasma concentration-time curve (AUC) was calculated by non-linear least squares program WinNonlin (registered trademark), and the bioavailability (BA) of the compound of the present invention was calculated from the AUCs of the oral administration group and intravenous administration group.

CYP2C19 = CYP2C19 (Homo sapiens (Human), UniProt P33261); assay: CYP inhibition test, CYP2C19; type: in vitro ADME; conditions: pooled human liver microsomes; mephenytoin 4′-hydroxylation; given as 'five kinds'
Excerpt: as §1

hERG (IKr) = hERG (IKr) (Homo sapiens (Human), UniProt Q12809); assay: hERG test; type: cell-based; conditions: CHO cells expressing hERG channel, pH 7.4, 10 μmol/L of test compound, read-out: % inhibition of hERG tail peak current (IKr)
Sequence of hERG (IKr) (Q12809 whole entry): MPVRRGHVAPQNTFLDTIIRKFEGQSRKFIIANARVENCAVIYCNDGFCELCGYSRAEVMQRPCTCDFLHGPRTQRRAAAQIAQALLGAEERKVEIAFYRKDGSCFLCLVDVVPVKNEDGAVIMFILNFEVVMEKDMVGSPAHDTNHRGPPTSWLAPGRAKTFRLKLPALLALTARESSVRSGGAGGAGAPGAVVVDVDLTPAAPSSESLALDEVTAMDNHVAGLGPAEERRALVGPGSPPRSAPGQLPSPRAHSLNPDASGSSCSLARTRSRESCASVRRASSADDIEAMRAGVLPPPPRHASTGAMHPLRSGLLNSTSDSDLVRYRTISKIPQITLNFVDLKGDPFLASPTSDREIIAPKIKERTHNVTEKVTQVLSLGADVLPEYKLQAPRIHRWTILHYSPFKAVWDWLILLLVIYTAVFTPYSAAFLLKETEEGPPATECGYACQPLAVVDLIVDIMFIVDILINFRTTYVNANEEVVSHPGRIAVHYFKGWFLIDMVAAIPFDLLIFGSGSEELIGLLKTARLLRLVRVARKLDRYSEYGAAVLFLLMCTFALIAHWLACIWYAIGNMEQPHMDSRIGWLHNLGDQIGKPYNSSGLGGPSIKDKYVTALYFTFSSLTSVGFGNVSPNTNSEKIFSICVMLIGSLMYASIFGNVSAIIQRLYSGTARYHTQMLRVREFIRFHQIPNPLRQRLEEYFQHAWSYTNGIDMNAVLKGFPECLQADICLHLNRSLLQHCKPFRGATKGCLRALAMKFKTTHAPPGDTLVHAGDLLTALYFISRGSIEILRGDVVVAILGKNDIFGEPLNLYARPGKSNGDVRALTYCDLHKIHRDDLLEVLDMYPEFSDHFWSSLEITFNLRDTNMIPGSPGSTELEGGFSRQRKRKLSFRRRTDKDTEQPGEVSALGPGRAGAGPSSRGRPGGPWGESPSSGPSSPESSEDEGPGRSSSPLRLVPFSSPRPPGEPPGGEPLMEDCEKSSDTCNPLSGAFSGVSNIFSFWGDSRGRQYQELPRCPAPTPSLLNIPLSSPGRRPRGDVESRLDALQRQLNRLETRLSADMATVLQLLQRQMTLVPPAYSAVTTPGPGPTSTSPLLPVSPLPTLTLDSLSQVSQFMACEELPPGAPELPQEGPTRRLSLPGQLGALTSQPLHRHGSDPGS

Sequence of CYP2C19 (P33261 whole entry): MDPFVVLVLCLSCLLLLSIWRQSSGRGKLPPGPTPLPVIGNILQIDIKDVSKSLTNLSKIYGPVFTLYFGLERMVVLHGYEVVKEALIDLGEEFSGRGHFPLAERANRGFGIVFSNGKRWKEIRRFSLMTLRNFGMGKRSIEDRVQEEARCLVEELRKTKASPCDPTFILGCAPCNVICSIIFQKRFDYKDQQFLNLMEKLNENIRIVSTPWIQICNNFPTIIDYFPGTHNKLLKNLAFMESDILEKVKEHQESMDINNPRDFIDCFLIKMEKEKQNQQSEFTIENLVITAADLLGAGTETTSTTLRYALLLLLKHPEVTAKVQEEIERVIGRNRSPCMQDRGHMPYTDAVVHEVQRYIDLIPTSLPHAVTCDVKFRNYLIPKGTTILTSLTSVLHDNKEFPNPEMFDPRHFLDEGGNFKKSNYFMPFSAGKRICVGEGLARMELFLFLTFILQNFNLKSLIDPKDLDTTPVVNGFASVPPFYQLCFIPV
Sequence of CYP2C9 (P11712 whole entry): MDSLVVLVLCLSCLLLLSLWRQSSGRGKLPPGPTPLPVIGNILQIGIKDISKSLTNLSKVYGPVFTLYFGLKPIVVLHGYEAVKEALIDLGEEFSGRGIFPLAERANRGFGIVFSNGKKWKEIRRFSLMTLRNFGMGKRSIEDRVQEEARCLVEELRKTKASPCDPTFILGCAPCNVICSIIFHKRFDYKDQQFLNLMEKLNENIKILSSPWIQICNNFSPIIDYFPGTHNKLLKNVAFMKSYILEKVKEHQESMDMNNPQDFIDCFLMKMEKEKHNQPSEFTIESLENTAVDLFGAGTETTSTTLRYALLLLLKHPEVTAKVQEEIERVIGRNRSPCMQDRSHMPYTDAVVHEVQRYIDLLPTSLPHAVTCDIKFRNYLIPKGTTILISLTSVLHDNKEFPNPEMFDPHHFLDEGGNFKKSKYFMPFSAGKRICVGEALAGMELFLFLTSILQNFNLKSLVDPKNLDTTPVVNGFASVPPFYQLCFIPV

| Compound | IC50 (CYP2C9) | bioavailability [1] | IC50 (CYP2C19) | inhibition at 10 min, 10 μmol/L (hERG (IKr)) |
| --- | --- | --- | --- | --- |
| CS(=O)(=O)CC(=O)Nc1c(CCC(F)(F)F)nn2c1C(=O)N[C@@]1(CCc3cc(OCC(F)(F)F)ccc31)C2 [Compound I-58] | > 20 µM | 88.2% | > 20 µM |  |
| N#Cc1ccc(-c2nn3c(c2NC(=O)CC(F)(F)F)C(=O)N[C@@]2(CCc4cc(OCC(F)(F)F)ccc42)C3)nc1 [Compound I-14] | > 20 µM |  | > 20 µM | 25.5% |
| Cc1ccc(-c2nn3c(c2NC(=O)CS(C)(=O)=O)C(=O)N[C@@]2(CCc4cc(OCC(F)(F)F)ccc42)C3)cc1 [Compound I-20] | > 20 µM | 63.4% | > 20 µM | 27.8% |
| CS(=O)(=O)CC(=O)Nc1c(CCC2CC2)nn2c1C(=O)N[C@@]1(CCc3cc(OCC(F)(F)F)ccc31)C2 [Compound I-46] | > 20 µM | 53.1% | > 20 µM |  |
| Cc1ccc(-c2nn3c(c2NC(=O)CS(C)(=O)=O)C(=O)N[C@@]2(CCc4cc(OCC(F)(F)F)ccc42)C3)nc1 [Compound I-6] | > 20 µM | 55.1% | > 20 µM |  |
